Activity calls are given as the source filed them. The rule behind the calls is not given here.
Legend:
[1] = tested on: RAW264.7; assay: Inhibition of LPS-induced COX2 protein expression in mouse RAW264.7 cells at 20 uM after 24 hrs by Western blotting; assay type: functional, cell-based
[2] = tested on: RAW264.7; assay: Antiinflammatory activity in mouse RAW264.7 cells assessed as inhibition of LPS-induced nitric oxide production at 10 uM after 24 hrs; assay type: functional, cell-based
[3] = tested on: RAW264.7; assay: Cytotoxicity against mouse RAW264.7 cells at 30 uM by MTT assay; assay type: cell-based; details: raw264.7, 30 µM
[4] = tested on: RAW264.7; assay: Antiinflammatory activity in mouse RAW264.7 cells assessed as inhibition of LPS-induced nitric oxide production at 30 uM after 24 hrs; assay type: functional, cell-based
[5] = tested on: RAW264.7; assay: Inhibition of LPS-induced iNOS protein expression in mouse RAW264.7 cells at 5 uM after 24 hrs by Western blotting; assay type: functional, cell-based
[6] = tested on: RAW264.7; assay: Inhibition of LPS-induced COX2 gene expression in mouse RAW264.7 cells at 20 uM after 24 hrs by RT-PCR; assay type: functional, cell-based
[7] = tested on: RAW264.7; assay: Inhibition of LPS-induced iNOS gene expression in mouse RAW264.7 cells at 20 uM after 24 hrs by RT-PCR; assay type: functional, cell-based
[8] = tested on: RAW264.7; assay: Inhibition of LPS-induced COX2 protein expression in mouse RAW264.7 cells at 5 uM after 24 hrs by Western blotting; assay type: functional, cell-based
[9] = tested on: RAW264.7; assay: Inhibition of LPS-induced iNOS protein expression in mouse RAW264.7 cells at 20 uM after 24 hrs by Western blotting; assay type: functional, cell-based

In the case of `COc1c(OC)c(OC)c2c(=O)cc(-c3ccc(O)c(O)c3)oc2c1OC`, the Activity [1] was “Active”, the Activity [2] was “Active” and the Activity [3] was “Non-toxic”. The Activity [4] was “Active”, the Activity [5] was “Active” and the Activity [6] was “Active”. The Activity [7] was “Active”, the Activity [8] was “Active” and the Activity [9] was “Active”.
For `COc1ccc(-c2cc(=O)c3c(OC)c(OC)c(OC)c(OC)c3o2)cc1OC` [NOBILETIN], the Activity [2] was “inactive”, the Activity [3] was “Non-toxic” and the Activity [4] was “inactive”.
In the case of `COc1cc(-c2cc(=O)c3c(OC)c(OC)c(OC)c(OC)c3o2)ccc1O`, the Activity [1] was “Active”, the Activity [2] was “Active” and the Activity [3] was “Non-toxic”. The Activity [4] was “Active”, the Activity [5] was “Active” and the Activity [6] was “Active”. For the same molecule, the Activity [7] was “Active”, the Activity [8] was “Active” and the Activity [9] was “Active”.
In the case of `COc1ccc(-c2cc(=O)c3c(OC)c(OC)c(OC)c(OC)c3o2)cc1O`, the Activity [2] was “Active”, the Activity [3] was “Non-toxic” and the Activity [4] was “Active”. For the same molecule, the Activity [5] was “inactive”, the Activity [7] was “inactive” and the Activity [9] was “inactive”.

— ChEMBL document CHEMBL1139771, “Anti-inflammatory property of the urinary metabolites of nobiletin in mouse” (Bioorg Med Chem Lett, 2007)
